# Measurements: paper PMC7162861, “Synthesis, cytotoxicity, pharmacokinetic profile, binding with DNA and BSA of new imidazo[1,2-a]pyrazine-benzo[d]imidazol-5-yl hybrids” (Scientific Reports, 2020)
# How the values were obtained:
# [1] = Experimental log P, shake-flask method; type: physicochemical; settings: n-octanol/phosphate buffer pH 7.4, read-out: Exp. Log P
# Description: Partition coefficients or experimental log P values of all synthesized compounds (9–23, 30 and 31) were calculated using the shake-flask method. Log P values were determined using n-octanol and phosphate buffer (pH = 7.4) at 10:1 ratio of volumes. Stock solutions (10^−3 M) of compounds were prepared in DMSO. Glass vials were used to make final solutions i.e. stock solution (250 µL) and phosphate buffer (125 µL). To record the absorbance, wavelength was selected based on λmax of the respective compound. Initial absorbance (Ai) for every compound was noted consuming the stock solution in the buffer phase. Now added n-octanol to every vial and shaken well using a mechanical shaker for 50 minutes. To get separation of both phases, glass vials were centrifuged for 35 min. at 2500 rpm. Then, the layer of octanol was separated from glass vial. The final absorbance (Af) of each compound was recorded by using the buffer layer. The values of P for compounds were determined by the following equation (Eq. 8):8 P=Ai−Af/Af×Vw/Vo
melting point [°C],logP [1],Compound
183 to 186,1.54,"Cc1cccc(-c2cn3ccnc3c(-c3ccc4c(c3)ncn4C3CCCCC3)n2)c1 [Compound 15, 8-(1-cyclohexyl-1H-benzo[d]imidazol-5-yl)-6-(m-tolyl)imidazo[1,2-a]pyrazine]"
182 to 185,1.74,"CCc1ccc(-c2cn3ccnc3c(-c3ccc4c(c3)ncn4C3CCCCC3)n2)cc1 [Compound 16, 8-(1-cyclohexyl-1H-benzo[d]imidazol-5-yl)-6-(4-ethylphenyl)imidazo[1,2-a]pyrazine]"
200 to 203,1.41,"CC(=O)c1ccc(-c2cn3ccnc3c(-c3ccc4c(c3)ncn4C3CCCCC3)n2)cc1 [Compound 17, 1-(4-(8-(1-cyclohexyl-1H-benzo[d]imidazol-5-yl)imidazo[1,2-a]pyrazin-6-yl)phenyl)ethan-1-one]"
